Entries after “also recorded” stand apart in the source; their conditions may differ.
Columns and labels:
[1] = system: C4-2 xenograft tumors; experiment: Prostate cancer xenografts in NSG mice; type: in vivo; details: SPOP-F133V C4-2 xenografts; JQ1 50 mg/kg i.p. 5 days a week, day 21
Procedure: 6-week-old NOD-SCID IL-2-receptor gamma null (NSG) mice were generated and randomly divided into different experimental groups as indicated. All mice were housed in standard conditions with a 12-hour light/dark cycle and access to food and water ad libitum. For BRD2/3/4 knockdown studies, C4-2 cells (5×10^6), infected with lentivirus expressing empty vector (EV) or HA-SPOP-F133V mutant in combination with control shRNA or BRD2/3/4-specific shRNA, were mixed with Matrigel (in 100 μL 1×PBS plus 100 μL Matrigel (BD Biosciences)) and injected s.c. into the right flank of mice. After xenografts reached the size of about 100 mm^3, vehicle (10% beta cyclodextrin) or JQ1 (Sigma-Aldrich) at 50 mg/kg body weight was administered by i.p. injection 5 days a week. For studies with tumors treated with JQ1 and AKT inhibitor GDC-0068, C4-2 cells (5×10^6) infected with lentivirus expressing empty vector (EV) or HA-SPOP-F133V mutant were mixed with Matrigel (in 100 μL 1×PBS plus 100 μL Matrigel (BD Biosciences)) and injected s.c. into the right flank of mice. […] Growth in tumor volume was measured in a blinded fashion using digital caliper, and tumor volumes were estimated using the formula (L×W2)/2, where L is length of tumor and W is width. The volumes of tumors were compared, and P values were determined by a two-tailed Student's t test. […]

[2] = system: DUB3; details: Borbely et al., Oncotarget 2015; cited from earlier work
[3] = system: C4-2 cells; experiment: Western blot and RT-qPCR of protein and mRNA expression in C4-2 cells; type: cell-based, human
Procedure: Cell lysates or immunoprecipitates were subjected to SDS-PAGE, and proteins were transferred to nitrocellulose membranes (GE Healthcare Sciences). The membranes were blocked in Tris-buffered saline (TBS, pH 7.4) containing 5% non-fat milk and 0.1% Tween-20, washed twice in TBS containing 0.1% Tween-20, and incubated with primary antibody overnight at 4° C., followed by secondary antibody for 1 hour at room temperature. The proteins of interest were visualized using ECL chemiluminescence system (Santa Cruz Biotechnology). Densitometry analysis of protein bands was analyzed on the Gel-Pro Analyzer software.
Total RNA was isolated from transiently transfected cells using the Trizol reagent (Thermo Fisher Scientific), and cDNA was reverse-transcribed using the Superscript RT kit (TOYOBO, Japan) according to the manufacturer's instructions. PCR amplification was performed using the SYBR Green PCR master mix Kit (TOYOBO, Japan). All quantization was normalized to the level of endogenous control GAPDH. The primer sequences for the SYBR green qPCR used were as follows: BRD2-F: 5′-[…]-3′ (SEQ ID NO:10); BRD2-R: 5′-[…]-3′ (SEQ ID NO:11); BRD3-F: 5′-[…]-3′ (SEQ ID NO:12); BRD3-R: 5′-[…]-[…]-3′ (SEQ ID NO:13); BRD4-F: 5′-[…]-GAG-3′ (SEQ ID NO:14); BRD4-F: 5′-[…]-3′ (SEQ ID NO: 15); RAC1-F: 5′-[…]-3′ (SEQ ID NO:16); RAC1-R: 5′-[…]-3′ (SEQ ID NO:17); FDFT1-F: 5′-ACTAT-[…]-3′ (SEQ ID NO:18); FDFT1-R: 5′-[…]-[…]-3′ (SEQ ID NO:19); DHCR24-F: 5′-[…]-GAGC-3′ (SEQ ID NO:20); DHCR24-R: 5′-[…]-3′(SEQ ID NO:21); DHCR7-F: 5′-[…]-3′ (SEQ ID NO: 22); DHCR7-R: 5′-[…]-3′ (SEQ ID NO:23); MVD-F: 5′-[…]-3′ (SEQ ID NO:24); MVD-R: 5′-CACAC-[…]-3′ (SEQ ID NO:25); PSA-F: 5′-[…]-[…]-3′ (SEQ ID NO:26); PSA-R: 5′-[…]-3′ (SEQ ID NO:27); TMPRSS2-F: 5′-[…]-3′ (SEQ ID NO: 28); TMPRSS2-R: 5′-[…]-3′ (SEQ ID NO:29); MYC-F: 5′-[…]-3′ (SEQ ID NO:30); MYC-R: 5′-CTTGT-[…]-3′ (SEQ ID NO:31); AR-F: 5′-[…]-TCACC-3′ (SEQ ID NO:32); AR-R: 5′-[…]-3′ (SEQ ID NO: 33); GAPDH-F: 5′-[…]-3′ (SEQ ID NO:34); and GAPDH-R: 5′-[…]-3′ (SEQ ID NO:35).
Cells were harvested and lysed by IP buffer (50 mM Tris-HCl, pH 7.4, 150 mM NaCl, 1% Triton X-100, 1% sodium deoxycholate and 1% protease inhibitor cocktails) on ice for more than 15 minutes. Cell lysate was centrifuged for 15 minutes at 13,000 rpm at 4° C., and the supernatant was quantified by BCA protein quantification assay. Equal amounts of protein sample were added into 4× sample buffer and boiled for 5 minutes. The sample was subjected to SDS-PAGE analysis and transferred to nitrocellulose membrane. The membrane was blocked by 5% milk for 1 hour at room temperature and incubated with primary antibody at 4° C. overnight. The next day, the membrane was washed three times with 1×TBST and incubated with horseradish peroxidase-conjugated secondary antibodies for 1 hour at room temperature. The protein bands were visualized by SuperSignal West Pico Stable Peroxide Solution (Thermo Fisher Scientific).
Total RNA was isolated using TRIzol reagent (Thermo Fisher Scientific). The NanoDrop 2000 spectrophotometer (Thermo Fisher Scientific) was used to assess RNA yield and quality. RNA was reversely transcribed using Superscript II reverse transcriptase (Thermo Fisher Scientific) following manufacturer's instructions. Quantitative real-time PCR was performed by mixing cDNA, gene-specific primers and IQ SYRB Green Supermix and detected by iCycler QTX detection system (Bio-Rad). The 2-ΔCt method was used to quantitate fold changes by normalizing to GAPDH.

[4] = control and SPOP-F133V C4-2 cells, JQ1 1 μM, 24 hours

## Cc1sc2c(c1C)C(c1ccc(Cl)cc1)=N[C@@H](CC(=O)OC(C)(C)C)c1nnc(C)n1-2 [JQ1]
[1]
  xenograft tumor growth: JQ1-resistance
[2]
  DUB3 mRNA level: rapid upregulation
[3]; C4-2 and 22Rv1 cells (JQ1 1 μM, 24 hours) and C4-2 tumors
  ERG expression: largely decreased
[3]; C4-2 cells, JQ1
  BRD4 protein level: increased
  DUB3 mRNA and protein levels: opposite; also recorded: upregulation
[3]; C4-2 cells, dose- and time-dependent
  NCOR2 protein and mRNA expression: decreased
[3]; SPOP-F133V C4-2 cells, JQ1 1 μM, 24 hours
  expression of cholesterol synthesis genes (FDFT1, DHCR24, DHCR7, MVD) and BRD4 binding at their promoters: not pronounced
[3]; control C4-2 cells, JQ1 1 μM, 24 hours
  expression of cholesterol synthesis genes (FDFT1, DHCR24, DHCR7, MVD) and BRD4 binding at their promoters: largely inhibited
[3]; [4]
  AR protein level: largely decreased
  AR transcriptional activity: largely decreased
  MYC protein expression: markedly decreased
  expression of receptor tyrosine kinases HER3, IGF1R and INSR: no effect
